Assays:
HT-29 = assay: Cytotoxicity against human HT-29 cells assessed as reduction in cell viability incubated for 72 hrs by SRB assay; format: functional, cell-based
MCF7 = assay: Cytotoxicity against human MCF7 cells assessed as reduction in cell viability incubated for 72 hrs by SRB assay; format: functional, cell-based
NIH3T3 = assay: Cytotoxicity against mouse NIH3T3 cells assessed as reduction in cell viability incubated for 72 hrs by SRB assay; format: cell-based
A2780 = assay: Cytotoxicity against human A2780 cells assessed as reduction in cell viability incubated for 72 hrs by SRB assay; format: functional, cell-based
A-375 = assay: Cytotoxicity against human A-375 cells assessed as reduction in cell viability incubated for 72 hrs by SRB assay; format: functional, cell-based
FaDu = assay: Cytotoxicity against human FaDu cells assessed as reduction in cell viability incubated for 72 hrs by SRB assay; format: functional, cell-based
[1] = Selectivity ratio of EC50 for mouse NIH3T3 cells to EC50 for human HT-29 cells; format: toxicity; details: NIH3T3 cells versus HT-29 cells, read-out: Ratio EC50
[2] = Selectivity ratio of EC50 for mouse NIH3T3 cells to EC50 for human A2780 cells; format: toxicity; details: NIH3T3 cells versus A2780 cells, read-out: Ratio EC50
[3] = Selectivity ratio of EC50 for mouse NIH3T3 cells to EC50 for human MCF7 cells; format: toxicity; details: NIH3T3 cells versus MCF7 cells, read-out: Ratio EC50
[4] = Selectivity ratio of EC50 for mouse NIH3T3 cells to EC50 for human FaDu cells
[5] = Selectivity ratio of EC50 for mouse NIH3T3 cells to EC50 for human A375 cells; format: toxicity; details: NIH3T3 cells versus A375 cells, read-out: Ratio EC50
[6] = Homo sapiens, HT-29, 72 h, read-out: EC50
[7] = Homo sapiens, MCF7, 72 h, read-out: EC50
[8] = Mus musculus, NIH3T3, 72 h, read-out: EC50
[9] = Homo sapiens, A2780, 72 h, read-out: EC50
[10] = Homo sapiens, A-375, 72 h, read-out: EC50
[11] = Homo sapiens, FaDu, 72 h, read-out: EC50

Row | Compound | EC50 (HT-29; [6]) | EC50 (MCF7; [7]) | EC50 (NIH3T3; [8]) | EC50 (A2780; [9]) | EC50 (A-375; [10]) | EC50 (FaDu; [11]) | selectivity ratio [1] | selectivity ratio [2] | selectivity ratio [3] | Ratio EC50 [4] | selectivity ratio [5] | EC50 (HT-29; ht-29) | EC50 (MCF7; mcf7) | EC50 (NIH3T3; nih3t3) | EC50 (A2780; a2780) | EC50 (A-375; a-375) | EC50 (FaDu; fadu)
1 | CC(=O)O[C@H]1CC[C@]2(C)[C@H]3CC[C@@H]4[C@H]5[C@H](C(C)=O)CC[C@]5(C(=O)O)CC[C@@]4(C)[C@]3(C)CC[C@H]2C1(C)C | > 30 µM | > 30 µM | > 30 µM | > 30 µM | > 30 µM | > 30 µM | – | – | – | – | – | – | – | – | – | – | –
2 | CC(=O)[C@@H]1CC[C@]2(C(=O)O)CC[C@]3(C)[C@H](CC[C@@H]4[C@@]5(C)C=C(O)C(=O)C(C)(C)[C@@H]5CC[C@]43C)[C@@H]12 | > 30 µM | 24.8 µM | > 30 µM | 20.6 µM | > 30 µM | > 30 µM | – | – | – | – | – | – | – | – | – | – | –
3 | CC(=O)O[C@H]1C[C@]2(C)[C@H]3CC[C@@H]4[C@H]5[C@H](C(C)=O)CC[C@]5(C(=O)NCc5ccccc5)CC[C@@]4(C)[C@]3(C)CC[C@H]2C(C)(C)[C@H]1OC(C)=O | 7.22 µM | 5.2 µM | > 30 µM | 2.36 µM | 2.9 µM | 5.57 µM | 4.2 | 12.7 | 5.8 | 5.4 | – | – | – | – | – | – | –
4 | CC(=O)O[C@H]1C[C@]2(C)[C@H]3CC[C@@H]4[C@H]5[C@H](C(C)=O)CC[C@]5(C(=O)O)CC[C@@]4(C)[C@]3(C)CC[C@H]2C(C)(C)[C@H]1OC(C)=O | > 30 µM | > 30 µM | 9.57 µM | > 30 µM | 22.5 µM | > 30 µM | 0.3 | 0.3 | 0.3 | 0.3 | 0.4 | – | – | – | – | – | –
5 | CC(=O)[C@@H]1CC[C@]2(C(=O)O)CC[C@]3(C)[C@H](CC[C@@H]4[C@@]5(C)C[C@H](O)[C@H](O)C(C)(C)[C@@H]5CC[C@]43C)[C@@H]12 | > 30 µM | > 30 µM | > 30 µM | > 30 µM | > 30 µM | > 30 µM | – | – | – | – | – | – | – | – | – | – | –
6 | C=C(C)[C@@H]1CC[C@]2(C(=O)O)CC[C@]3(C)[C@H](CC[C@@H]4[C@@]5(C)CC[C@H](OC(C)=O)C(C)(C)[C@@H]5CC[C@]43C)[C@@H]12 | 21.3 µM | – | > 30 µM | – | 19.2 µM | 7.2 µM | 1.4 | 1.6 | 2.7 | 4.2 | 1.6 | – | – | – | – | – | –
7 | CC(=O)[C@@H]1CC[C@]2(C(=O)O)CC[C@]3(C)[C@H](CC[C@@H]4[C@@]5(C)CCC(=O)C(C)(C)[C@@H]5CC[C@]43C)[C@@H]12 | > 30 µM | > 30 µM | > 30 µM | > 30 µM | > 30 µM | > 30 µM | – | – | – | – | – | – | – | – | – | – | –
8 | C=C(C)[C@@H]1CC[C@]2(C(=O)NCc3ccccc3)CC[C@]3(C)[C@H](CC[C@@H]4[C@@]5(C)CC[C@H](OC(C)=O)C(C)(C)[C@@H]5CC[C@]43C)[C@@H]12 | > 30 µM | 26.8 µM | > 30 µM | 6.29 µM | 4.05 µM | 9.59 µM | 1 | 4.8 | 1.1 | 3.1 | – | – | – | – | – | – | –
9 | C=C(C)[C@@H]1CC[C@]2(C(=O)Nc3cccc4ncccc34)CC[C@]3(C)[C@H](CC[C@@H]4[C@@]5(C)CC[C@H](OC(C)=O)C(C)(C)[C@@H]5CC[C@]43C)[C@@H]12 | > 30 µM | 12.1 µM | > 30 µM | 5.08 µM | 3.05 µM | 5.18 µM | 1 | 5.9 | 2.5 | 5.8 | – | – | – | – | – | – | –
10 | C=C(C)[C@@H]1CC[C@]2(C(=O)O)CC[C@]3(C)[C@H](CC[C@@H]4[C@@]5(C)C=C(O)C(=O)C(C)(C)[C@@H]5CC[C@]43C)[C@@H]12 | 26.1 µM | 12 µM | 12.8 µM | 10.5 µM | 13.8 µM | 14.1 µM | 0.5 | 1.2 | 1.1 | 0.9 | 0.9 | – | – | – | – | – | –
11 | CC(=O)O[C@H]1CC[C@]2(C)[C@H]3CC[C@@H]4[C@H]5[C@H](C(C)=O)CC[C@]5(C(=O)Nc5cccc6ncccc56)CC[C@@]4(C)[C@]3(C)CC[C@H]2C1(C)C | > 30 µM | 7.06 µM | > 30 µM | 5.4 µM | 4.6 µM | 6.42 µM | 1 | 5.6 | 4.3 | 4.7 | – | – | – | – | – | – | –
12 | CC(=O)O[C@H]1CC[C@]2(C)[C@H]3CC[C@@H]4[C@H]5[C@H](C(C)=O)CC[C@]5(C(=O)Nc5cncc6ccccc56)CC[C@@]4(C)[C@]3(C)CC[C@H]2C1(C)C | > 30 µM | 9.34 µM | > 30 µM | 7.84 µM | 5.66 µM | 7.67 µM | 1 | 3.8 | 3.2 | 3.9 | – | – | – | – | – | – | –
13 | C=C(C)[C@@H]1CC[C@]2(C(=O)O)CC[C@]3(C)[C@H](CC[C@@H]4[C@@]5(C)C[C@H](OC(C)=O)[C@H](OC(C)=O)C(C)(C)[C@@H]5CC[C@]43C)[C@@H]12 | 17.4 µM | 11.2 µM | 14.1 µM | 8.68 µM | 15.8 µM | 13.5 µM | 0.8 | 1.6 | 1.3 | 1 | 0.9 | – | – | – | – | – | –
14 | C=C(C)[C@@H]1CC[C@]2(C(=O)O)CC[C@]3(C)[C@H](CC[C@@H]4[C@@]5(C)CC[C@H](O)C(C)(C)[C@@H]5CC[C@]43C)[C@@H]12 [BETULINIC ACID] | > 30 µM | > 30 µM | > 30 µM | > 30 µM | > 30 µM | > 30 µM | – | – | – | – | – | – | – | – | – | – | –
15 | CC(=O)O[C@H]1C[C@]2(C)[C@H]3CC[C@@H]4[C@H]5[C@H](C(C)=O)CC[C@]5(C(=O)Nc5cncc6ccccc56)CC[C@@]4(C)[C@]3(C)CC[C@H]2C(C)(C)[C@H]1OC(C)=O | 18.4 µM | 6.96 µM | > 30 µM | 6.15 µM | 4.88 µM | 6.41 µM | 1.6 | 4.9 | 4.3 | 4.7 | – | – | – | – | – | – | –
16 | CC(=O)O[C@H]1C[C@]2(C)[C@H]3CC[C@@H]4[C@H]5[C@H](C(C)=O)CC[C@]5(C(=O)Nc5cccc6ncccc56)CC[C@@]4(C)[C@]3(C)CC[C@H]2C(C)(C)[C@H]1OC(C)=O | – | – | – | – | – | – | – | – | – | – | – | Nd(Insoluble) | Nd(Insoluble) | Nd(Insoluble) | Nd(Insoluble) | Nd(Insoluble) | Nd(Insoluble)
17 | COc1cccc2c1C(=O)c1c(O)c3c(c(O)c1C2=O)C[C@@](O)(C(=O)CO)C[C@@H]3O[C@H]1C[C@H](N)[C@H](O)[C@H](C)O1 [DOXORUBICIN] | > 30 µM | – | 1.3 µM | – | – | – | – | – | – | – | – | – | – | – | – | – | –
18 | C=C(C)[C@@H]1CC[C@]2(C(=O)Nc3cncc4ccccc34)CC[C@]3(C)[C@H](CC[C@@H]4[C@@]5(C)C[C@H](OC(C)=O)[C@H](OC(C)=O)C(C)(C)[C@@H]5CC[C@]43C)[C@@H]12 | > 15 µM | 7.33 µM | > 30 µM | 4.76 µM | 3.34 µM | 4.02 µM | 2 | 6.3 | 4.1 | 7.5 | – | – | – | – | – | – | –
19 | CC(=O)O[C@H]1CC[C@]2(C)[C@H]3CC[C@@H]4[C@H]5[C@H](C(C)=O)CC[C@]5(C(=O)NCc5ccccc5)CC[C@@]4(C)[C@]3(C)CC[C@H]2C1(C)C | – | – | – | – | – | – | – | – | – | – | – | Nd(Insoluble) | Nd(Insoluble) | Nd(Insoluble) | Nd(Insoluble) | Nd(Insoluble) | Nd(Insoluble)
20 | C=C(C)[C@@H]1CC[C@]2(C(=O)O)CC[C@]3(C)[C@H](CC[C@@H]4[C@@]5(C)CCC(=O)C(C)(C)[C@@H]5CC[C@]43C)[C@@H]12 [BETUNOLIC ACID] | 18.5 µM | 12 µM | 19.4 µM | 4.7 µM | 14.3 µM | 17.4 µM | – | – | – | – | – | – | – | – | – | – | –
21 | CC(=O)[C@@H]1CC[C@]2(C(=O)O)CC[C@]3(C)[C@H](CC[C@@H]4[C@@]5(C)CC[C@H](O)C(C)(C)[C@@H]5CC[C@]43C)[C@@H]12 [PLATANIC ACID] | > 30 µM | > 30 µM | > 30 µM | > 30 µM | > 30 µM | > 30 µM | – | – | – | – | – | – | – | – | – | – | –

From ChEMBL document CHEMBL4765454, “Betulinic acid derived amides are highly cytotoxic, apoptotic and selective” (Eur J Med Chem, 2020)
